Measured values: patent publication US20020137929A1, “1 - (3-heterocyclylphenyl) isothiourea, -isourea, -guanidine and -amidine herbicidal agents” (Intellectual Property Department, BASF Aktiengesellschaft, priority 1998, published 2002)

Tests used:
AMBEL (Ragweed, Common) = experiment: Preemergence herbicidal evaluation; assay type: in vivo, Ambrosia artemisifolia; conditions: rated 4-5 weeks after treatment; for AMBEL rating: preemergence, 0-9 scale
Outline: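 Rating at 4–5 wk post-spray on a 0–9 visual scale vs control. Application: aqueous acetone, ~0.0156–0.500 kg/ha, to soil surface after seeding, preemergence.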

CYPIR (Rice Flatsedge) = experiment: Preemergence weed control under flooded paddy conditions; assay type: in vivo, Cyperus iria; conditions: rated 3-4 weeks after treatment
Outline: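 Seeds or propagules sown in top 0.5 cm of silt loam soil, flooded 1.5 to 3 cm above surface throughout. Compound in 50/50 v/v aqueous/acetone pipetted into flood water at about 0.0313 to 0.500 kg/ha. Visual 0-9 rating versus control after three to four weeks in greenhouse.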

MOOVA (Monochoria) = experiment: Postemergence weed control under flooded paddy conditions; assay type: in vivo, Monochoria vaginalis; conditions: postemergence weeds, rated 3 to 4 weeks after treatment
Outline: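 With weeds 3 to 5 cm tall and rice at the 1.5 to 2.5 leaf stage, containers were flooded and water held 1.5 to 3 cm above soil. Compounds in 50/50 v/v aqueous/acetone went into the flood water at about 0.0313 to 0.500 kg/ha a.i. Effects were visually rated 0–9 against controls after three to four weeks in the greenhouse.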

ORYSAT (Rice, Tebonnet) = experiment: Rice tolerance to post-transplant applications, flooded paddy conditions (Table III); assay type: in vivo, Oryza sativa, (L.) Tebonnet; conditions: in vivo
Description: Results of herbicide evaluation are expressed on a rating scale (0-9). The scale is based upon a visual observation of plant stand, vigor, malformation, size, chlorosis and overall plant appearance as compared with a control.
The tolerance of transplanted rice to post-transplanted herbicide applications is determined as follows: two ten-day-old rice seedlings (cv. Tebonnet) are transplanted into silt loam soil in 32 oz. plastic containers with a diameter of 10.5 cm and no drainage holes. After transplanting, the containers are flooded and the water level is maintained at 1.5 to 3 cm above the soil surface. Three days after transplanting, the flooded soil surface of the containers is treated with the selected aqueous/acetone 50/50 v/v mixture containing the test compounds to provide the equivalent of about 0.0313 to 0.500 kg/ha of active ingredient. The treated containers are placed on greenhouse benches, watered such that the water level is maintained as stated above, and cared for in accordance with conventional greenhouse procedures. Three to four weeks after treatment, the test is terminated and each container is examined and herbicidal effect rated according to the rating system provided in Example 37. The compounds evaluated are reported by compound number given in Example 37.
Plant species employed in this example are reported by header abbreviation, common name and scientific name.

[1] = rate 0.1250 kg/ha, rating scale 0-9
[2] = rate 0.2500 kg/ha, rating scale 0-9
[3] = rate 0.0313 kg/ha, rating scale 0-9
[4] = rate 0.0625 kg/ha, rating scale 0-9

Compound | AMBEL rating (AMBEL (Ragweed, Common); 0.0313 kg/ha) | AMBEL rating (AMBEL (Ragweed, Common); 0.0625 kg/ha) | AMBEL rating (AMBEL (Ragweed, Common); 0.1250 kg/ha) | AMBEL rating (AMBEL (Ragweed, Common); 0.2500 kg/ha) | AMBEL rating (AMBEL (Ragweed, Common); 0.5000 kg/ha) | CYPIR herbicidal effect rating (CYPIR (Rice Flatsedge); 0.0313 kg/ha) | CYPIR herbicidal effect rating (CYPIR (Rice Flatsedge); 0.0625 kg/ha) | CYPIR herbicidal effect rating (CYPIR (Rice Flatsedge); 0.1250 kg/ha) | CYPIR herbicidal effect rating (CYPIR (Rice Flatsedge); 0.2500 kg/ha) | Herbicidal rating MOOVA (MOOVA (Monochoria); Rate 0.0313 kg/ha) | Herbicidal rating MOOVA (MOOVA (Monochoria); Rate 0.0625 kg/ha) | Herbicidal rating MOOVA (MOOVA (Monochoria); Rate 0.1250 kg/ha) | Herbicidal rating MOOVA (MOOVA (Monochoria); Rate 0.2500 kg/ha) | Preemergence herbicidal rating AMBEL (AMBEL (Ragweed, Common); [1]) | Preemergence herbicidal rating AMBEL (AMBEL (Ragweed, Common); [2]) | herbicidal effect rating, CYPIR (CYPIR (Rice Flatsedge); 0.2500 kg/ha) | herbicidal effect rating, ORYSAT (rice tolerance) (ORYSAT (Rice, Tebonnet)) | Preemergence herbicidal rating AMBEL (AMBEL (Ragweed, Common); [3]) | Preemergence herbicidal rating AMBEL (AMBEL (Ragweed, Common); [4]) | other results
C=CCN1C(=O)C(CC(N)=O)SC1=Nc1cc(-n2c(=O)cc(C(F)(F)F)n(C)c2=O)c(F)cc1Cl (centres unmarked) [Compound 99, 3-Allyl-2-{{2-chloro-5-[3,6-dihydro-3-methyl-2,6-dioxo-4-(trifluoromethyl)-1(2H)-pyrimidinyl]-4-fluorophenyl}imino}-4-oxo-5-thiazolidineacetamide] | 0.0 | 4.0 | 9.0 | 9.0 | 9.0 | 0.0 | 0.0 | 0.0 | 0.0 | 9.0 | 9.0 | 9.0 | 9.0 | – | – | – | – | – | – | AMBEL rating (AMBEL (Ragweed, Common); 0.0156 kg/ha): 0.0; CYPIR herbicidal effect rating (CYPIR (Rice Flatsedge); 0.5000 kg/ha): 0.0; Herbicidal rating MOOVA (MOOVA (Monochoria); Rate 0.5000 kg/ha): 9.0
CCOC(=O)CN1C(=O)C(CC(=O)NS(=O)(=O)c2ccccc2)SC1=Nc1cc(-n2c(=O)cc(C(F)(F)F)n(C)c2=O)c(F)cc1Cl (centres unmarked) [Compound 100, Ethyl 2-{{2-chloro-5-[3,6-dihydro-3-methyl-2,6-dioxo-4-(trifluoromethyl)-1(2H)-pyrimidinyl]-4-fluorophenyl}imino}-4-oxo-5-{[(phenylsulfonyl)-carbamoyl]methyl]-3-thiazolidineacetate] | 0.0 | 0.0 | 1.0 | 1.0 | 7.0 | 0.0 | 0.0 | 0.0 | 4.0 | 9.0 | 9.0 | 9.0 | 9.0 | – | – | – | – | – | – | CYPIR herbicidal effect rating (CYPIR (Rice Flatsedge); 0.5000 kg/ha): 9.0; Herbicidal rating MOOVA (MOOVA (Monochoria); Rate 0.5000 kg/ha): 9.0
CCOC(=O)CN1C(=O)C(CC(=O)NS(=O)(=O)CC)SC1=Nc1cc(-n2c(=O)cc(C(F)(F)F)n(C)c2=O)c(F)cc1Cl (centres unmarked) [Compound 103, Ethyl 2-{{2-chloro-5-[3,6-dihydro-3-methyl-2,6-dioxo-4-(trifluoromethyl)-1(2H)-pyrimidinyl]-4-fluorophenyl}imino}-5-{[(ethylsulfonyl)carbamoyl]-methyl}-4-oxo-3-thiazolidineacetate] | 0.0 | 0.0 | 0.0 | 4.0 | 9.0 | 4.0 | 6.0 | 9.0 | 9.0 | 5.0 | 7.0 | 9.0 | 9.0 | – | – | – | – | – | – | –
CCS(=O)(=O)NC(=O)CC1SC(=Nc2cc(-n3c(=O)cc(C(F)(F)F)n(C)c3=O)c(F)cc2Cl)N(C)C1=O (centres unmarked) [Compound 105, 2-{{2-Chloro-5-[3,6-dihydro-3-methyl-2,6-dioxo-4-(trifluoromethyl)-1(2H)-pyrimidinyl]-4-fluorophenyl}imino}-N-(ethylsulfonyl)-3-methyl-4-oxo-5-thiazolidineacetamide] | – | – | 1.0 | 3.0 | 4.0 | 5.0 | 7.0 | 7.0 | 9.0 | 6.0 | 7.0 | 7.0 | 9.0 | – | – | – | – | – | – | –
Cn1c(C(F)(F)F)cc(=O)n(-c2cc(N=C3SCC(=O)N3CC(=O)OCC#N)c(Cl)cc2F)c1=O [Compound 109, 2-{{2-Chloro-5-[3,6-dihydro-3-methyl-2,6-dioxo-4-(trifluoromethyl)-1(2H)-pyrimidinyl]-4-fluorophenyl}imino}-4-oxo-3-thiazolidineacetic acid, ester with glycolonitrile] | – | – | – | – | – | 5.0 | 7.0 | 9.0 | 9.0 | 2.0 | 4.0 | 9.0 | 9.0 | – | – | – | – | – | – | Preemergence herbicidal rating AMBEL (AMBEL (Ragweed, Common); rate 0.0156 kg/ha): 3.0; Preemergence herbicidal rating AMBEL (AMBEL (Ragweed, Common); rate 0.0313 kg/ha): 3.0; Preemergence herbicidal rating AMBEL (AMBEL (Ragweed, Common); rate 0.0625 kg/ha): 8.0; Preemergence herbicidal rating AMBEL (AMBEL (Ragweed, Common); rate 0.1250 kg/ha): 9.0; Preemergence herbicidal rating AMBEL (AMBEL (Ragweed, Common); rate 0.2500 kg/ha): 9.0; Preemergence herbicidal rating AMBEL (AMBEL (Ragweed, Common); rate 0.5000 kg/ha): 9.0
COc1ccc(CN2C(=O)CSC2=Nc2cc(-n3c(=O)cc(C(F)(F)F)n(C)c3=O)c(F)cc2Cl)cc1OC [Compound 134, 3-{4-Chloro-5-{[3-(3,4-dimethoxybenzyl)-4-oxo-2-thiazolidinylidene]amino}-2-fluorophenyl}-1-methyl-6-(trifluoromethyl)-2,4(1H,3H)-pyrimidinedione] | – | – | – | – | – | – | – | – | – | – | – | – | – | 0.0 | 3.0 | 3.0 | 2.0 | – | – | –
Cn1c(C(F)(F)F)cc(=O)n(-c2cc(N=C3SCC(=O)N3Cc3ccc(S(N)(=O)=O)cc3)c(Cl)cc2F)c1=O [Compound 135, Alpha-{2-{{2-chloro-5-[3,6-dihydro-3-methyl-2,6-dioxo-4-(trifluoromethyl)-1(2H)-pyrimidinyl]-4-fluorophenyl}imino}-4-oxo-3-thiazolidinyl}-p-toluenesulfonamide] | – | – | – | – | – | – | – | – | – | – | – | – | – | 4.0 | 7.0 | 7.0 | 0.0 | 0.0 | 0.0 | Preemergence herbicidal rating AMBEL (AMBEL (Ragweed, Common); rate 0.0156 kg/ha, rating scale 0-9): 0.0; herbicidal effect rating, CYPIR (CYPIR (Rice Flatsedge); 0.0313 kg/ha): 5.0; herbicidal effect rating, CYPIR (CYPIR (Rice Flatsedge); 0.0625 kg/ha): 6.0; herbicidal effect rating, CYPIR (CYPIR (Rice Flatsedge); 0.1250 kg/ha): 7.0
Cn1c(C(F)(F)F)cc(=O)n(-c2cc(N=C3SCC(=O)N3Cc3ccc(Br)cc3)c(Cl)cc2F)c1=O [Compound 148, 3-{5-{[3-(p-Bromobenzyl)-4-oxo-2-thiazolidinyl-idene]amino}-4-chloro-2-fluorophenyl}-1-methyl-6-(trifluoromethyl)-2,4(1H,3H)-pyrimidinedione] | – | – | – | – | – | – | – | – | – | – | – | – | – | 0.0 | 4.0 | 7.0 | 0.0 | 0.0 | 0.0 | herbicidal effect rating, CYPIR (CYPIR (Rice Flatsedge); 0.0313 kg/ha): 4.0; herbicidal effect rating, CYPIR (CYPIR (Rice Flatsedge); 0.0625 kg/ha): 4.0; herbicidal effect rating, CYPIR (CYPIR (Rice Flatsedge); 0.1250 kg/ha): 6.0
CSCCN1C(=O)CSC1=Nc1cc(-n2c(=O)cc(C(F)(F)F)n(C)c2=O)c(F)cc1Cl [Compound 157] | – | – | – | – | – | – | – | – | – | – | – | – | – | 0.0 | 1.0 | 0.0 | 0.0 | 0.0 | 0.0 | –
